The record followed here is PMC5007854, “β-Nitrostyrenes as Potential Anti-leishmanial Agents” (Frontiers in Microbiology, 2016).

≈ marks a conversion by molar mass, not a printed value. Where two headings read alike, the source gives them in different places.

Data set [1] deals with L. donovani intracellular amastigotes. Kind of data set: Anti-amastigote activity in ex vivo macrophage model. The format is cell-based, Leishmania donovani. The conditions noted are these: 48 h; for Clearance of intracellular amastigotes in Giemsa-stained micrographs: 1.56 μM; for IC50: Leishmania donovani, Peritoneal macrophage, in Mus musculus, read-out: L. donovani amastigotes IC50 ± SEM. An excerpt: BALB/c mice was used for the isolation of peritoneal macrophages in the ex vivo anti-amastigote study after prior approval from the Jamia Hamdard Animal Ethics Committee (JHAEC). JHAEC is registered under the Committee for the purpose of supervision and control of experiments on animals (CPCSEA). Mice were individually housed in the Central Animal House of Jamia Hamdard as per internationally accepted norms. The mice were kept in standard size polycarbonate cages under controlled conditions of temperature (23 ± 1°C), humidity (55 ± 10%), 12:12 h of light and dark cycle and fed with standard pellet diet and filtered water (ad libitum).
Macrophages from the peritonial cavity of BALB/c mice (1 × 10^6 cellsml^−1) were allowed to adhere to round glass coverslips in a 24 well tissue culture plate and incubated for 12 h at 37°C in a CO2 incubator. After removal of the non-adherent macrophages, the cells were infected with stationary phase promastigotes using a cell to parasite ratio of 1:10 and incubated at 37°C for 24 h. The non-phagocytosed parasites were removed by washing, and the infected macrophages incubated with the test compounds 9, 12, 14, and 18 (0–25 μM) for an additional 48 h. The coverslips were fixed in methanol and giemsa-stained for microscopic evaluation (100X) of amastigote infectivity. Number of amastigotes per 100 macrophages were enumerated and the concentration that decreased amastigotes by 50% (IC50) was determined (Wong et al., [2012]; Islamuddin et al., [2014a]).
In vitro antileishmanial activity was expressed as IC50 by linear regression analysis. Values are mean ± SE of samples in triplicate from at least three independent experiments. Statistical analysis was performed using ANOVA followed by Dunnett's test. ^*P < 0.05, ^**P < 0.01 and ^***P < 0.001 compared with the untreated control group were considered significant.

The subject of data set [2] is gram-positive bacteria (S. aureus and S. epidermidis). Nature of the data set: Broth microdilution, pooled statement for gram-positive bacteria. The format is cell-based. The conditions noted are these: Staphylococcus aureus; range over both strains. An excerpt: (§1) One reference each of the following species was used for their in vitro susceptibility to β-nitrostyrene in this study: Staphylococcus aureus ATCC 29213, Staphylococcus epidermidis ATCC 14990, Escherichia coli ATCC 25922, Pseudomonas aeruginosa ATCC 27853, Candida albicans ATCC 90028, Candida glabrata ATCC 90030, Aspergillus fumigatus ATCC 16424 and Aspergillus niger ATCC 16404. These strains were procured from the American Type Culture Collection (ATCC, Manassas, VA, USA).
(§2) The antibacterial and antifungal activities of the β-nitrostyrenes were performed by broth microdilution methods as per the guidelines of Clinical and Laboratory Standard Institute (Wayne, [1998], [2008a],[b],[c]) by using Mueller-Hinton broth (MHB; Becton-Dickinson, Cockeysville, MD, USA) supplemented with calcium (25 mg/L) and magnesium (12.5 mg/L) for bacterial strains while as RPMI 1640 medium with L-glutamine and without sodium bicarbonate, buffered to pH 7.0 with 0.165 M 3-(N-morpholino) propanesulfonic acid (MOPS; both from Sigma) was used for fungal strains. […] The plates were read visually and the minimum inhibitory concentration (MIC) was defined as the lowest concentration of test sample that prevented visible growth with respect to the growth control.

Data set [3] has as its system Aspergillus species. Kind of data set: Broth microdilution, pooled statement for Aspergillus species. The class given is cell-based. The conditions noted are these: range over A. fumigatus and A. niger.
Excerpt: as §1, §2
A general note: Dilution methods test growth across graded concentrations, often in twofold steps.

Data set [4] relates to Candida species. Kind of data set: Broth microdilution, pooled statement for Candida species. The class given is cell-based. The following applies: range over C. albicans and C. glabrata.
Excerpt: as §1, §2

Where [5] appears, read: intracellular amastigotes in BALB/c peritoneal macrophages.

What is called melting point is the temperature of the solid-liquid transition. In general, IC50 refers to the concentration that inhibits the measured activity by half. `CC/C(=C\c1ccc([N+](=O)[O-])cc1)[N+](=O)[O-]` [Compound 9, 1-nitro-4-((E)-2-nitrobut-1-enyl) benzene]: the melting point was in the range of 104 to 106 °C. Also, in data set [1], the “Clearance of intracellular amastigotes in Giemsa-stained micrographs” value (from here on “Clearance of intracellular amastigotes”) is reported as “almost total clearance” and the IC50 was determined as 0.0305 ± 0.00342 µM.

For orientation: MIC means the lowest concentration found to suppress growth. As to `CC/C(=C\c1cccc([N+](=O)[O-])c1)[N+](=O)[O-]` [Compound 12, 1-nitro-3-((E)-2-nitrobut-1-enyl) benzene], the melting point was in the range of 84 to 86 °C. Moreover, the MIC in data set [2] is 0.25 to 0.5 µg/mL (≈ 1.13 to 2.25 µM). Besides, the MIC in data set [3] lay within 0.5 to 1 µg/mL (≈ 2.25 to 4.5 µM). In data set [1], the “Clearance of intracellular amastigotes” value is recorded as “almost total clearance” and the half-inhibitory concentration (IC50) came out at 0.0215 ± 0.00096 µM. Also, the MIC in data set [4] is 0.25 to 2 µg/mL (≈ 1.13 to 9 µM).

On to `COc1ccc(/C=C(\C)[N+](=O)[O-])cc1` [Compound 14, 1-methoxy-4-((E)-2-nitroprop-1-enyl) benzene], for which the “Clearance of intracellular amastigotes” value in data set [1] is “almost total clearance”. Moreover, the IC50 in data set [1] (setting [5]) turned out to be 0.0264 ± 0.00271 µM.

As to `CC/C(=C\c1ccc(O)cc1)[N+](=O)[O-]` [Compound 18, 4-((E)-2-nitrobut-1-enyl) phenol], in data set [1], the “Clearance of intracellular amastigotes” value is on record as “almost total clearance”. Also, in data set [1] (setting [5]), the half-inhibitory concentration (IC50) was determined as 0.0616 ± 0.00802 µM.
